Measured values published in publication PMC2854587 (Nature, 2008).

Target: T1, SrfTEII (surfactin type II thioesterase; SrfD, external thioesterase) (Bacillus subtilis, UniProt Q08788)
T1 sequence (Q08788 1-241): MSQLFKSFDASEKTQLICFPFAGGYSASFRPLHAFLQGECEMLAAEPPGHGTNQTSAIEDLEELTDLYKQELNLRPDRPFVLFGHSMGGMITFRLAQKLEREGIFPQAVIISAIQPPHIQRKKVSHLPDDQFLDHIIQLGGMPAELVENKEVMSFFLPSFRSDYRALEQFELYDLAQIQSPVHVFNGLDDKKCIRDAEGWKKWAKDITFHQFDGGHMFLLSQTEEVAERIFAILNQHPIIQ
Assay: […]-HSQC NMR titration
Format: binding
Conditions: 296 K; 15N-enriched SrfTEII

For CCCCCCCCCCCCCC(=O)SCCNC(=O)CCNC(=O)[C@H](O)C(C)(C)COP(=O)(O)OP(=O)(O)OC[C@H]1O[C@@H](n2cnc3c(N)ncnc32)[C@H](O)[C@@H]1OP(=O)(O)O [myristoyl-CoA], which “15N-HSQC NMR titration (chemical shift perturbation)” value is on record?
The value was “Interestingly, myristoyl-CoA also binds to SrfTEII”.
